Laboratory results: US20230036041A1, “SORTILIN BINDING CONJUGATE COMPOUNDS, COMPOSITIONS AND USES THEREOF FOR TREATING CANCER” (THERATECHNOLOGIES INC., priority 2019, published 2023)
Read-outs that look alike come from different tables or passages of the source. Non-standard residues stand in square brackets, D forms with d. Residues, ends and D or L forms follow the SMILES beside them. *: point of attachment. X1 = CC(=O)O[C@@]12CO[C@@H]1C[C@H](O)[C@@]1(C)C(=O)[C@H](O)C3=C(C)[C@@H](OC(=O)[C@H](OC(=O)CCC(=O)*)[C@@H](NC(=O)OC(C)(C)C)c4ccccc4)C[C@@](O)([C@@H](OC(=O)c4ccccc4)[C@H]21)C3(C)C; Nle = CCCC[C@H](N)C(=O)O

Assays:
[1] = test system: MDA-MB-231 breast cancer cells; assay: cells; type: cell-based, human; conditions: read-out: IC50 value, anti-proliferative activity
Experimental: In vitro testing of the TH19P01 peptide and the TH1902 conjugate compound was conducted.

[2] = test system: AN3-CA endometrial xenograft tumor; type: in vivo, mice
Experimental: (§1) Briefly, stock solution of formulated TH1902 was prepared as sterile aliquots of 10 mg/mL frozen liquid solutions (see below). On the day of animal dosing, frozen aliquots were thawed 30 minutes at room temperature then diluted with sterile 5% dextrose injection, USP (D5W) to the desired concentration for injection (i.e. typically 5.4 or 1.35 mg/mL).
(§2) TH1902 frozen stock solution were prepared as follow: • 1. Make the TH1902 diluent solution (Diluent) the day before the solubilization. Diluent: 10% Tween™ 80 in D5W USP (w/v) with 0.04% of formic acid (v/v), ˜pH 2.9. Leave solution at room temperature until TH1902 solubilization (next day). • 2. Weigh 60 mg of TH1902 API into a 14 ml glass vial with screw caps. Adjust TH1902 weights to reflect TH1902 purity according to the certificate of analysis. • 3. Add 90% of diluent solution needed to prepare the TH1902 10 mg/ml stock solution. • 4. Swirl the content of the bottle to form opaque mixture and place a stir bar. • 5. Place bottle in the heating apparatus (glass water bath and mount for holding vial with thermometer and stir bar on a digital heating plate). Begin mixing the content of the bottle. • 6. […] Transfer the formulation to a graduated glass cylinder and bring to final calculated volume with diluent solution. • 9. […] Perform UPLC analysis against a TH1902 standard curve for quantification and purity assessment. • 11. […]
Three human sortilin-positive gynecological cancer cell lines (ovary: ES-2 and SKOV-3/Luc, endometrial: AN3-CA) were used for to assess the chemotherapeutic activity of TH1902 in vivo using xenograft models in immunodeficient mice. […] Body weights of the mice administered with docetaxel, TH1902 or vehicle were monitored as a gross indicator of morbidity.
The effect of TH1902 or docetaxel on the endometrial AN3-CA xenograft tumor model is shown on FIG. 24. […] In FIG. 24B effects of TH1902 and docetaxel on tumor progression at day-14 are presented by subtracting the initial tumor volumes at day-0 to the tumor volumes measured at day 14. […]

[3] = test system: SK-MEL-28 xenografts; type: in vivo, mice
Experimental: as §1
as §2, with “6. Gradually increase the temperature of water bath in increments of 5° C. every 30 minutes until mixture turns clear (temperature ramping up to 45° C. over a period of time of about 165 to 180 minutes).” for “6.”
Two of the sortilin-expressing melanoma cancer cell lines (SK-MEL-28 and B16-F10) were used to monitor whether TH1902 impeded the growth of the cells when administered at 35 mg/kg/week, versus unconjugated docetaxel at 15 mg/kg/week. This is the maximum tolerated dose (MTD) for free docetaxel, and the TH1902 formulation contains the equivalent quantity of docetaxel within this peptide drug conjugate. […] This difference was quantified when the control group reached the tumor volume endpoint at day-42. […]

[4] = test system: murine B16-F10 cancer cells; assay: syngeneic melanoma tumor model (B16-F10); type: in vivo, mice; conditions: for body weights, dose-response study: equivalent doses, −20% endpoint limit
Experimental: as §1
TH1902 frozen stock solution were prepared as follow: • 1. Make the TH1902 diluent solution (Diluent) the day before the solubilization. Diluent: 10% Tween™ 80 in D5W USP (w/v) with 0.04% of formic acid (v/v), ˜pH 2.9. Leave solution at room temperature until TH1902 solubilization (next day). • 2. Weigh 60 mg of TH1902 API into a 14 ml glass vial with screw caps. Adjust TH1902 weights to reflect TH1902 purity according to the certificate of analysis. • 3. Add 90% of diluent solution needed to prepare the TH1902 10 mg/ml stock solution. • 4. Swirl the content of the bottle to form opaque mixture and place a stir bar. • 5. Place bottle in the heating apparatus (glass water bath and mount for holding vial with thermometer and stir bar on a digital heating plate). Begin mixing the content of the bottle. • 6. Gradually increase the temperature of water bath in increments of 5° C. every 30 minutes until mixture turns clear (temperature ramping up to 45° C. over a period of time of about 165 to 180 minutes). Record water bath temperature every 15 minutes. • 7. Leave at room temperature for 30 minutes with gentle swirling (cool down). Measure pH. Adjust pH to 4.3±0.2 using dilute NaOH (0.1 N or less). • 8. Transfer the formulation to a graduated glass cylinder and bring to final calculated volume with diluent solution. • 9. Transfer back into the 14 ml glass vial and mix slowly for 5 minutes at room temperature. Measure pH. pH should be 4.3±0.2. • 10. Filter sterilize with a PES 0.22 μm membrane into a new and sterile 14 ml glass vial. Check the pH again. Perform UPLC analysis against a TH1902 standard curve for quantification and purity assessment. • 11. Freeze aliquots of TH1902 stock solution at −80° C. (0.5 mL per aliquot in 4 mL glass vials).
For the syngeneic B16-F10 melanoma tumor model, normal immunocompetent mice were implanted subcutaneously with murine B16-F10 cancer cells. […]
For FIG. 28A, immunocompetent mice bearing B16-F10 xenografts were repeatedly injected intravenously (arrows indicate injection days) with vehicle or with vehicle containing equivalent of docetaxel (15 mg/kg/week) or TH1902 (35 mg/kg/week). In FIG. 28B, the effects of TH1902 and docetaxel on tumor progression at day-14 are presented by subtracting the initial tumor volumes at day-0 to the tumor volumes measured at day-14 when tumors of the vehicle group reached the endpoint limits. […]

| SMILES | IC50 ([1]; Homo sapiens) [nM] | tumor growth, high dose ([2]; equivalent dose of docetaxel 15 mg/kg/week (TH1902 35 mg/kg/week), halved after 2 cycles) | body weights ([2]; mouse, in vivo) | tumor growth / tumor volumes ([3]; TH1902 35 mg/kg/week, docetaxel 15 mg/kg/week, endpoint day-42, FIG. 27) | body weight of mice ([3]; mouse, in vivo) | tumor growth at the highest dose, dose-response study ([4]; TH1902 23 mg/kg/bi-weekly, docetaxel 10 mg/kg/bi-weekly) | body weights, dose-response study [4] | IC50 [1] [nM] | body weights ([2]; MTD for docetaxel, TH1902 containing the equivalent quantity of docetaxel) | body weight of mice ([3]; TH1902 35 mg/kg/week, docetaxel 15 mg/kg/week) | mouse body weights, first study ([4]; TH1902 35 mg/kg/week) |
| --- | --- | --- | --- | --- | --- | --- | --- | --- | --- | --- | --- |
| CC(=O)O[C@@]12CO[C@@H]1C[C@H](O)[C@@]1(C)C(=O)[C@H](O)C3=C(C)[C@@H](OC(=O)[C@H](O)[C@@H](NC(=O)OC(C)(C)C)c4ccccc4)C[C@@](O)([C@@H](OC(=O)c4ccccc4)[C@H]21)C3(C)C [docetaxel] | 0.56 ± 0.19 | complete arrest tumor growth arrest | greater evidence of weight loss | inhibited tumor growth | remained within −20% endpoint limit | only a minor impact on tumor growth | within the acceptable range |  |  |  |  |
| CCCC[C@H](NC(=O)[C@H](CC(N)=O)NC(=O)[C@H](CCCNC(=N)N)NC(=O)[C@@H](NC(=O)CNC(=O)[C@H](C)NC(=O)[C@H](CCCCNC(=O)CCC(=O)O[C@@H](C(=O)O[C@H]1C[C@@]2(O)[C@@H](OC(=O)c3ccccc3)[C@@H]3[C@]4(OC(C)=O)CO[C@@H]4C[C@H](O)[C@@]3(C)C(=O)[C@H](O)C(=C1C)C2(C)C)[C@@H](NC(=O)OC(C)(C)C)c1ccccc1)NC(=O)[C@H](C)NC(=O)[C@H](CCCNC(=N)N)NC(=O)[C@@H](NC(=O)CNC(C)=O)C(C)C)C(C)C)C(=O)N[C@@H](Cc1ccccc1)C(=O)N[C@@H](CCCCNC(=O)CCC(=O)O[C@@H](C(=O)O[C@H]1C[C@@]2(O)[C@@H](OC(=O)c3ccccc3)[C@@H]3[C@]4(OC(C)=O)CO[C@@H]4C[C@H](O)[C@@]3(C)C(=O)[C@H](O)C(=C1C)C2(C)C)[C@@H](NC(=O)OC(C)(C)C)c1ccccc1)C(=O)N[C@@H](CO)C(=O)N[C@@H](CCC(=O)O)C(=O)N[C@@H](CO)C(=O)N[C@@H](Cc1ccc(O)cc1)C(=O)O [TH1902, Acetyl-GVRAK(docetaxel)AGVRN(Nle)FK(docetaxel)SESY] (Ac-GVRAK(X1)AGVRN[Nle]FK(X1)SESY-OH) |  |  |  |  |  |  | within the acceptable range | 0.19 ± 0.09 | retained a fairly constant weight | remained within −20% endpoint limit | without having an impact on mouse body weights |
